From patent publication US20240246935A1 (Plexium, Inc., priority 2021, published 2024) come the findings set out here.

Assay [1] concerns the target human E3 ligase component cereblon (CRBN) (Homo sapiens (Human), UniProt Q96SW2). In words: Cereblon (CRBN) target engagement, NanoBRET TE Intracellular E3 Ligase Assay in transfected HEK-293T cells. The settings on record: read-out: CRBN Binding EC50. Summed up:
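Live HEK-293T cells co-transfected overnight with NanoLuc-CRBN (CRBN at NanoLuc C-terminus) and DDB1 vectors (10:990 ng) were given CRBN tracer and an 11-point compound series for 2 h at 37° C. BRET read at 450/610 nm with extracellular NanoLuc inhibitor present; IC50 from four-parameter logistic fit.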
For orientation: In BRET a luciferase serves as donor, and the signal depends on an acceptor being close.

The next assay has as its target GSPT1 (Homo sapiens (Human), UniProt P15170+Q96SW2). In words: GSPT1 reporter degradation assay (HEK293 hGSPT1 HiBiT-tagged cells). The assay is classed as cell-based. The note with it: 24 hour incubation. On the procedure: HEK293_hGSPT1_HiBiT-tagged cells were generated using CRISPR-Cas12a technology. Briefly, ˜400,000 HEK293 cells were transiently co-transfected with precomplexed ribonuclear proteins (RNPs) consisting of 80 pmol of crRNA (IDT), 62 pmol of Cas12a protein (IDT), 3 μg of ssODN donor (IDT; AltR® modifications), 78 pmol of electroporation enhancer (IDT), and 200 ng of pMaxGFP (Lonza). The transfection was performed via nucleofection (Lonza, 4D-Nucleofector X-unit) using solution P3 and program CM-130 in a (20 μL) cuvette. Five days post-nucleofection, cells were single-cell-sorted for GFP+(transfected) cells by FACs in 96-well plates and clonally selected. Clones were screened and verified for the desired modification via targeted deep sequencing using gene-specific primers with partial Illumina adapter overhangs as previously described. In brief, clonal cell pellets were harvested, lysed, and used to generate gene-specific amplicons with partial Illumina adapters in PCR #1. Amplicons were indexed in PCR #2 and pooled with other targeted amplicons for other loci to create sequence diversity. Additionally, 10% PhiX sequencing control V3 (Illumina) was added to the pooled amplicon library prior to running the sample on a Miseq Sequencer System (Illumina) to generate paired 2×250 bp reads. Samples were demultiplexed using the index sequences, fastq files were generated, and NGS analysis was performed using CRIS.py. Final clones were authenticated using the PowerPlex fusion system (Promega) and tested negative for mycoplasma by the MycoAlert™Plus mycoplasma detection kit (Lonza).
Editing construct sequences and screening primers are outlined below (sequence from 5′ to 3′). hGSPT1Cas12acrRNA, CAGE635.GSPT1.g1: […] (SEQ ID NO: 4); CAGE635.g1.anti.ssODN: ttcctcacagtattgtgcagggtcatcaagaaaatgctta[…] CAGCCGCTCACgtcCttctctggaaccagtttcagaacttttccaattgcaatggtcttacctagaaatgaaattttaa (HiBiT tag and silent blocking modifications to prevent Cas12a recutting after integration are in upper case) (SEQ ID NO: 5); CAGE635.hGSPT1.DS.F: […] (SEQ ID NO: 6); CAGE635.hGSPT1.DS.R: GTGAA GTAGGCTTCTGCAGTC (SEQ ID NO: 7).
The GSPT1 degradation assay was carried out by harvesting the HEK 293T reporter cell lines and resuspending the cells in media formulated for reduced background fluorescence (FluoroBrite; Thermo Fisher). The respective cell lines were seeded at a density of 8,000 cells/well into white-opaque 384-well optical grade assay tissue culture plates (Greiner 781080-20). The cells were incubated overnight at 37° C. to allow for attachment to the assay plate. Dilutions of the compounds were prepared in DMSO from 10 mM compound stocks. Test compounds were added in a 10-point dilution series (typically 10 μM to […]) using a TECAN D300e Digital Dispenser with an upper limit of 0.5% final DMSO. Plates were centrifuged at 320×g for 2 minutes at room temperature, and subsequently incubated at 37° C.
After 24 hour incubation with the compounds, the plates were allowed to cool to room temperature for 10 minutes. 30 μL of HiBiT lytic buffer+1:50 HiBiT substrate Solution were added to each well. Plates were centrifuged at 320×g for 2 minutes at room temperature and then incubated with shaking at room temperature for 10 minutes covered with foil. Plates were read on a CLARIOstar microplate reader (BMG LabTech), measuring at 450 nm (donor emission) and 610 nm or 630 nm (acceptor emission). The DC50 values were determined by regression to best fit four-parameter logistic curves using GraphPad Prism.
For orientation: HiBiT is a short tag that completes a luciferase, so light tracks the accessible tagged protein.

GSPT1, sequence (P15170 whole entry): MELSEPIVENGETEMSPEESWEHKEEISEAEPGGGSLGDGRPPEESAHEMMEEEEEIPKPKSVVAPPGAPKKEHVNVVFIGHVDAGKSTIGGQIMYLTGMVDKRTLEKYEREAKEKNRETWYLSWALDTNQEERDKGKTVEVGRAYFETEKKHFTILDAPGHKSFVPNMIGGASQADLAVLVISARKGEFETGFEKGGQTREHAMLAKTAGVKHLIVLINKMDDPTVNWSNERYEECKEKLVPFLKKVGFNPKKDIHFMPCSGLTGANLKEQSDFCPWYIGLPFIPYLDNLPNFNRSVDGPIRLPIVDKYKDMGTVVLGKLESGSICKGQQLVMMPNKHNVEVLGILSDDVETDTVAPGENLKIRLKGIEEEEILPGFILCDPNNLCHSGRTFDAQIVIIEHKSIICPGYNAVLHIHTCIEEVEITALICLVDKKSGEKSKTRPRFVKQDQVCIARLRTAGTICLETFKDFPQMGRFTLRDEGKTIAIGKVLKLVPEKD
GSPT1, sequence (Q96SW2 whole entry): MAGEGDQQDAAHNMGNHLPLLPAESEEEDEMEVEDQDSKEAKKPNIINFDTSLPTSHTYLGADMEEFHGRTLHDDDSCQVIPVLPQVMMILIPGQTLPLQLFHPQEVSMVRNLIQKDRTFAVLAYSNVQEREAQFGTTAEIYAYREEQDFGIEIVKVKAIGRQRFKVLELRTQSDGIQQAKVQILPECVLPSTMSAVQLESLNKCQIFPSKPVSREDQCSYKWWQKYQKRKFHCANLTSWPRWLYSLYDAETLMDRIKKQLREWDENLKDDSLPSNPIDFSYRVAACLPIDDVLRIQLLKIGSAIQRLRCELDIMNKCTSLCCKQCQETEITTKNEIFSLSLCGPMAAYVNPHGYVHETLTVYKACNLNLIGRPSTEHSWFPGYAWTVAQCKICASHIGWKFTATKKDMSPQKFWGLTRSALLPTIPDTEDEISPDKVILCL
GSPT1, sequence (Q16531 whole entry partner): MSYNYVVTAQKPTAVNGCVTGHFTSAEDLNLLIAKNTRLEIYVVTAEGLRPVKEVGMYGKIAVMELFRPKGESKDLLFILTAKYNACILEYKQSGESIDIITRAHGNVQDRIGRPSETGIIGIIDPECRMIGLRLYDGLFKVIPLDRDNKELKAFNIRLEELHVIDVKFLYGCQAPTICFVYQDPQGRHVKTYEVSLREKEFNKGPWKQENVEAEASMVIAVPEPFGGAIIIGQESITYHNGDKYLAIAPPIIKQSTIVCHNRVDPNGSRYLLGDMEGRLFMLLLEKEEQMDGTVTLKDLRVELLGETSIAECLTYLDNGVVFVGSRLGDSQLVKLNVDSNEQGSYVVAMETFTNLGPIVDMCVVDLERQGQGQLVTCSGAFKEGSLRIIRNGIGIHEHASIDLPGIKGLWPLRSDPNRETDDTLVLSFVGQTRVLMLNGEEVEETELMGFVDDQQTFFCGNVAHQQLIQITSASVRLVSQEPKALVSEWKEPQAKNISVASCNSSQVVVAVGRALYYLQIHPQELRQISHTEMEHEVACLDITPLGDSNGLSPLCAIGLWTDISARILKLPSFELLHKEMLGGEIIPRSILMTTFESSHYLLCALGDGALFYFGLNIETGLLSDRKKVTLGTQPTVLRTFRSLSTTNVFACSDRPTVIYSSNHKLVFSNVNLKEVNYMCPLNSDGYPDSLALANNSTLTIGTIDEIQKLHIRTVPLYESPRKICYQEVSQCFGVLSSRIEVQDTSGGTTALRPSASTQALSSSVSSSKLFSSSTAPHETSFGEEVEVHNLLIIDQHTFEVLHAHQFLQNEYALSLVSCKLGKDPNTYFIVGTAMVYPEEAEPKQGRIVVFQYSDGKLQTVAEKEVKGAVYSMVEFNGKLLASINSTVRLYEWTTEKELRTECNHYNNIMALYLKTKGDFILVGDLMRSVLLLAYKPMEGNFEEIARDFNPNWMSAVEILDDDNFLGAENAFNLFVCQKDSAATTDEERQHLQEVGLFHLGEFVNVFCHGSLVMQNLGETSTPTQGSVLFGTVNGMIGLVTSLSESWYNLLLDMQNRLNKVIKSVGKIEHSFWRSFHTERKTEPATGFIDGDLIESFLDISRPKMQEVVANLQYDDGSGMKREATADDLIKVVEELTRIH
human E3 ligase component cereblon (CRBN), sequence (Q96SW2 whole entry): as the sequence (Q96SW2 whole entry) above
human E3 ligase component cereblon (CRBN), sequence (Q16531 whole entry partner): as the sequence (Q16531 whole entry partner) above

Turning to `N#Cc1cc(Cl)ccc1C1CN([C@@H]2CCCC[C@@H]2Oc2ccc3c(c2)CN(C2CCC(=O)NC2=O)C3=O)C1` (mixture of isomers) [Compound 100, Rac-5-chloro-2-(1-((cis)-2-((2-(2,6-dioxopiperidin-3-yl)-1-oxoisoindolin-5-yl)oxy)cyclohexyl)azetidin-3-yl)benzonitrile], the EC50 in assay [1] amounted to 25 nM. Further, the DC50 on GSPT1 is more than 30000 nM.

For the compound `O=C1CCC(N2Cc3cc(O[C@H]4CCCC[C@@H]4N4CC(c5ccc(F)cc5)C4)ccc3C2=O)C(=O)N1` (single isomer, unassigned) [Compound 50], the EC50 in assay [1] worked out at 4 nM. In addition, on GSPT1, the DC50 was more than 30000 nM.

`O=C1CCC(N2Cc3cc(O[C@H]4CCCC[C@@H]4N4CC(c5ccccc5)C4)c(F)cc3C2=O)C(=O)N1` (single isomer, unassigned) [Compound 52]: in assay [1], the EC50 was determined as 11 nM. For the same compound, on GSPT1, the DC50 was more than 30000 nM.

With `O=C1CCC(N2Cc3c(ccc(O[C@H]4CCCC[C@@H]4N4CC(c5ccccc5)C4)c3F)C2=O)C(=O)N1` (single isomer, unassigned) [Compound 65], in assay [1], the EC50 came out at 52 nM. Also, the DC50 on GSPT1 is more than 30000 nM.

Regarding `O=C1CCC(N2Cc3c(ccc(O[C@H]4CCCC[C@@H]4N4CC(c5ccccc5)C4)c3F)C2=O)C(=O)N1` (single isomer, unassigned) [Compound 66], the EC50 in assay [1] was 24 nM. Besides, the DC50 on GSPT1 was more than 30000 nM.

For `O=C1CCC(N2Cc3cc(O[C@H]4CCCC[C@@H]4N4CC(c5cccc(OC(F)(F)F)c5)C4)ccc3C2=O)C(=O)N1` (stereo partly drawn) [Compound 35, 3-(1-oxo-5-(((1S,2S)-2-(3-(3-(trifluoromethoxy)phenyl)azetidin-1-yl)cyclohexyl)oxy)isoindolin-2-yl)piperidine-2,6-dione], the EC50 in assay [1] was 17 nM. The same compound yielded a DC50 on GSPT1 of more than 30000 nM.

With `O=C1CCC(N2Cc3cc(O[C@H]4CCCC[C@@H]4N4CC(c5ccccc5OC(F)(F)F)C4)ccc3C2=O)C(=O)N1` (stereo partly drawn) [Compound 36, 3-(1-oxo-5-(((1S,2S)-2-(3-(2-(trifluoromethoxy)phenyl)azetidin-1-yl)cyclohexyl)oxy)isoindolin-2-yl)piperidine-2,6-dione], the EC50 in assay [1] was determined as 31 nM. The half-maximal degradation concentration (DC50) on GSPT1 was more than 30000 nM.

On to `O=C1CCC(N2Cc3cc(O[C@H]4CCCC[C@@H]4N4CC(c5cccc(F)c5F)C4)ccc3C2=O)C(=O)N1` (stereo partly drawn) [Compound 64, 3-(5-(((1S,2S)-2-(3-(2,3-difluorophenyl)azetidin-1-yl)cyclohexyl)oxy)-1-oxoisoindolin-2-yl)piperidine-2,6-dione], for which the EC50 in assay [1] came out at 11 nM. This compound also yielded a DC50 on GSPT1 of more than 30000 nM.

With `O=C1CCC(N2Cc3cc(O[C@H]4CCCC[C@@H]4N4CC(c5cccc(F)c5)C4)ccc3C2=O)C(=O)N1` (stereo partly drawn) [Compound 111, 3-(5-(((1S,2S)-2-(3-(3-fluorophenyl)azetidin-1-yl)cyclohexyl)oxy)-1-oxoisoindolin-2-yl)piperidine-2,6-dione], in assay [1], the EC50 worked out at 6 nM. The compound further had a DC50 on GSPT1 of more than 30000 nM.

Consider `O=C1CCC(N2Cc3cc(O[C@H]4CCCC[C@@H]4N4CC(c5ccc(N6CCOCC6)cc5)C4)ccc3C2=O)C(=O)N1` (stereo partly drawn) [Compound 124, 3-(5-(((1S,2S)-2-(3-(4-morpholinophenyl)azetidin-1-yl)cyclohexyl)oxy)-1-oxoisoindolin-2-yl)piperidine-2,6-dione], for which the EC50 in assay [1] stood at 2 nM. The compound also came in with a DC50 at GSPT1 of more than 30000 nM.

As to `O=C1CC[C@@H](N2Cc3cc(O[C@H]4CCCC[C@@H]4N4CC(c5ccccc5)C4)ccc3C2=O)C(=O)N1` [Compound 125, (R)-3-(1-oxo-5-(((1S,2S)-2-(3-phenylazetidin-1-yl)cyclohexyl)oxy)isoindolin-2-yl)piperidine-2,6-dione], in assay [1], the EC50 was 6 nM. Besides, on GSPT1, the half-maximal degradation concentration (DC50) was more than 30000 nM.

For the compound `O=C1CCC(N2Cc3cc(O[C@H]4CCCC[C@@H]4N4CC(c5ccccc5C(F)(F)F)C4)ccc3C2=O)C(=O)N1` (stereo partly drawn) [Compound 129, 3-(1-oxo-5-(((1S,2S)-2-(3-(2-(trifluoromethyl)phenyl)azetidin-1-yl)cyclohexyl)oxy)isoindolin-2-yl)piperidine-2,6-dione], the EC50 in assay [1] stood at 17 nM. The DC50 on GSPT1 was more than 30000 nM.

On to `O=C(O)CC(O)(CC(=O)O)C(=O)O.O=C1CCC(N2Cc3cc(O[C@H]4CCCC[C@@H]4N4CC(c5ccccc5)C4)ccc3C2=O)C(=O)N1` (stereo partly drawn) [Compound 130, 3-(1-oxo-5-(((1S,2S)-2-(3-phenylazetidin-1-yl)cyclohexyl)oxy)isoindolin-2-yl)piperidine-2,6-dione 2-hydroxypropane-1,2,3-tricarboxylate], for which the EC50 in assay [1] stood at 4 nM. Further, at GSPT1, the DC50 is more than 30000 nM.

For `O=C1CCC(N2Cc3cc(O[C@H]4CCCCC[C@@H]4N4CC(c5ccccc5)C4)ccc3C2=O)C(=O)N1` (stereo partly drawn) [Compound 131, 3-(1-oxo-5-(((1S,2S)-2-(3-phenylazetidin-1-yl)cycloheptyl)oxy)isoindolin-2-yl)piperidine-2,6-dione], the EC50 in assay [1] was 11 nM. For the same compound, the DC50 at GSPT1 is more than 30000 nM.

Turning to `O=C1CCC(N2Cc3cc(O[C@H]4CCCC[C@@H]4N4CC(c5ccc(O)cc5)C4)ccc3C2=O)C(=O)N1` (stereo partly drawn) [Compound 132, 3-(5-(((1S,2S)-2-(3-(4-hydroxyphenyl)azetidin-1-yl)cyclohexyl)oxy)-1-oxoisoindolin-2-yl)piperidine-2,6-dione], the EC50 in assay [1] was found to be 11 nM. Besides, on GSPT1, the DC50 is more than 30000 nM.

On to `O=C1CCC(N2Cc3cc(O[C@H]4CCCC[C@@H]4N4CC(c5ccccc5O)C4)ccc3C2=O)C(=O)N1` (stereo partly drawn) [Compound 133, 3-(5-(((1S,2S)-2-(3-(2-hydroxyphenyl)azetidin-1-yl)cyclohexyl)oxy)-1-oxoisoindolin-2-1)piperidine-2,6-dione], for which the EC50 in assay [1] was determined as 14 nM. The DC50 on GSPT1 was more than 30000 nM.

For the compound `O=C1CCC(N2Cc3cc(O[C@H]4CCCC[C@@H]4N4CC(c5cccc(O)c5)C4)ccc3C2=O)C(=O)N1` (stereo partly drawn) [Compound 134, 3-(5-(((1S,2S)-2-(3-(3-hydroxyphenyl)azetidin-1-yl)cyclohexyl)oxy)-1-oxoisoindolin-2-yl)piperidine-2,6-dione], the EC50 in assay [1] came out at 12 nM. Further, at GSPT1, the DC50 is more than 30000 nM.

What is called EC50 is the concentration that produces a half-maximal response. As a reminder, the DC50 is the midpoint of the concentration-degradation curve. Read a low DC50 as degradation at low concentration.
